Laboratory results published in patent US20170307610A1, “COMPOUNDS THAT BIND DYSTROGLYCAN AND USES THEREOF” (OREGON HEALTH & SCIENCE UNIVERSITY, priority 2014, published 2017).

System: E3D1 MECs
Assay: Pulsed time course of Rhod-Ln internalization, flow cytometry
Format: cell-based, mouse
Description: To explore the dynamics of laminin internalization, steady-state time course experiments (measuring internalization in the continuous presence of labeled laminin) and pulsed time course experiments were performed. In pulsed time course experiments, the cells were exposed to exogenous Rhod-Ln at 4° C. to prevent internalization, excess unbound Rhod-Ln was washed away, and then cells were returned to 37° C. to allow synchronized internalization and trafficking to proceed. […] Following pulsed and synchronized laminin exposure, Rhod-Ln was again observed to internalize within 1 hour, but reached a maximum at 8 hours, after which the levels of internal laminin declined (FIG. 4A). After 24 hours, internal Rhod-Ln levels declined to ˜37% of the maxima, indicating degradation (MFI: 315±3.5 to 119±11.5). To determine if laminin was degraded using classical degradation pathways, pulsed time course experiments in the presence of leupeptin (lysosome inhibitor) or […] (proteasome inhibitor) were performed.
Laminin labeling—Laminin-111 (1 mg) (Sigma-Aldrich Corp., St. Louis, Mo., USA) was dialyzed twice overnight against 500 ml of PBS with 10 μM CaCl2. The dialyzed laminin was then reacted with 10 μg NHS-rhodamine, or a 50 fold molar excess of NHS409 CypHer5 (GE) for 2 hr on ice, followed by dialysis twice overnight against 500 ml of PBS with 10 μM CaCl2.
Flow Cytometry—Cells were plated in 12 well plates at 200,000 cells/well. The following day, media was changed to serum-free media with or without 10 μg/ml rhodamine laminin or 40 μg/ml FITC-dextran (500S-Sigma-Aldrich Corp., St. Louis, Mo., USA). Unless otherwise indicated, cells were incubated 18-24 hrs, washed once with PBS, and cells trypsinized. Cells were washed in 5 ml cold PBS/1 mM EDTA, pelleted, and resuspended in 1 ml PBS/1 mM EDTA. Using a BD FACScan flow cytometer (BD Biosciences, San Jose, Calif., USA), 10,000 cells/well were counted, background fluorescence from the cell counts with no added laminin subtracted and the mean fluorescence intensity values reported. Graphed data are compiled from duplicate wells from each experiment with a minimum of three separate experiments, unless indicated otherwise.

## Rhod-Ln: laminin-111 labeled with NHS-rhodamine; dystroglycan binding reagent
Pulsed and synchronized laminin exposure, 4° C. then 37° C.
  time at which Rhod-Ln was observed to internalize: ≤ 1 h
Pulsed laminin exposure
  time of maximum internal laminin: 8 h
pulsed, 24 hours
  MFI of internal Rhod-Ln after 24 hours: 119±11.5
pulsed, after 24 hours
  internal Rhod-Ln level relative to the maxima: ~37%
pulsed, maximum (8 hours)
  MFI of internal Rhod-Ln at the maximum: 315±3.5
